Biological target: T1, PASK (Invitrogen) (Homo sapiens, UniProt Q96RG2)
T1 construct: IC50 Kinase Domain; purchased Invitrogen
Experiment: PAS Kinase FRET Assay
Format: biochemical
Details: PAS kinase TR-FRET assay (665 nm/615 nm), 2 hours at 25° C.; read-out: IC50 Kinase Domain
Excerpt: Biochemical Assay for hPASK Activity
The aim of the FRET assay is to determine the inhibition potential of test compounds on targeted kinase. This assay platform provides a homogenous screening method for measuring kinase activity by quantitating the amount of phospho-substrate in solution following a kinase reaction.
In the presence of kinase and ATP, the Ulight-peptide is phosphorylated and captured by an anti-phospho-substrate antibody, which brings the Eu chelate donor and Ulight acceptor dyes into close proximity.
Titration of kinase at 1 mM ATP was achieved via the following protocol. […] The contents of the plate were incubated at RT for 1 h. The reaction was stopped by adding 5 μl of stop solution to each test well followed by mixing and incubation at RT for 10 minutes. 5 μl of detection mix (detection antibody diluted in detection buffer) was added; the contents of the plate were mixed and then incubated in the dark for 1 hour at RT. […] The results were graphed to calculate the EC50.
Titration of ATP at the EC50 concentration of kinase to determine ATP Km,app. was performed using the following method. […] The contents of the plate were and incubated at RT for 1 h. The reaction was stopped by adding 5 μl of stop solution to each test well followed by mixing and incubation at RT for 10 minutes. […] (detection antibody diluted in detection buffer) was added; the contents of the plate were mixed and then incubated in the dark for 1 hour at RT. […] The results were graphed to calculate the EC50 as the ATP Km,app.
Compound screening was done via the following method. 10 mM stock solution of test compound in DMSO was prepared by dissolving test compound in DMSO at RT for 1 hour, and then sonicating at 100% output for 8 minutes. If compound is not soluble under this condition, it was diluted to 3 mM. Kinase reaction buffer was prepared containing 10 mM MgCl2, 50 mM HEPES, 1 mM EGTA, 0.01% TWEEN-20, 2 mM DTT. […] As a positive control, 2.5 μl of positive compound was added to assay wells, and 2.5 μl of DMSO to assay wells as vehicle control. Kinase solution was prepared in reaction buffer at 2× final assay concentration. Kinase solution (5 μl) was added to each well of the assay plate. The substrate and ATP solution was prepared in kinase reaction buffer at 4× final assay concentration. The kinase reaction was started by adding 2.5 μl of substrate+ATP mix solution to each well of the assay plate. The plate is mixed on a plate shaker; then covered and allowed to react for 2 hours in the dark at 25° C. without shaking. The reaction was stopped by adding 5 μl of stop solution to each test well followed by mixing and incubation at RT for 10 minutes in the dark. 5 μl of detection mix (detection antibody diluted in detection buffer) was added; the contents of the plate were mixed and then incubated in the dark for 1 hour at RT.

T1 sequence (Q96RG2 999-1251 limits assumed): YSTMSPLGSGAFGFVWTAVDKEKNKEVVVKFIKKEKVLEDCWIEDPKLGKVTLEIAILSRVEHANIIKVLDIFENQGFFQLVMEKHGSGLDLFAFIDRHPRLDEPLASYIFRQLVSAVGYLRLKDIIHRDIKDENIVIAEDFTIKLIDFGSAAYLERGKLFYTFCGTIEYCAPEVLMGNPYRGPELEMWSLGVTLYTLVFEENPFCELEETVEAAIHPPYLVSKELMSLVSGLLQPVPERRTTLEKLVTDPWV

Row | IC50 [µM] | Structure (SMILES)
1 | < 10 | O=C(O)c1ccc2nc(-c3cc4ccccc4s3)c(N3CCCCCC3)nc2c1 [Example 54, 3-(Azepan-1-yl)-2-(benzo[b]thiophen-2-yl)quinoxaline-6-carboxylic acid]
2 | < 10 | O=C(O)c1ccc2nc(-c3ccc(F)cc3)c(N3CCCC3)nc2c1 [Example 144, 2-(4-Fluorophenyl)-3-(pyrrolidin-1-yl)quinoxaline-6-carboxylic acid]
3 | < 10 | CC(C)N(C)c1nc2cc(C(=O)O)ccc2nc1-c1ccc(N)nc1 [Example 16, 2-(6-Aminopyridin-3-yl)-3-(isopropyl(methyl)amino)quinoxaline-6-carboxylic acid]
4 | < 10 | CC(C)N(C)c1nc2cc(C(=O)O)ccc2nc1-c1ccc2c(c1)OC(F)(F)O2 [Example 42, 2-(2,2-Difluorobenzo[d][1,3]dioxol-5-yl)-3-(isopropyl(methyl)amino)quinoxaline-6-carboxylic acid]
5 | < 10 | C[C@H]1CCCN1c1nc2cc(C(=O)O)ccc2nc1-c1ccc2c(c1)OC(F)(F)O2 [Example 34, (S)-2-(2,2-Difluorobenzo[d][1,3]dioxol-5-yl)-3-(2-methylpyrrolidin-1-yl)quinoxaline-6-carboxylic acid]
6 | < 10 | C[C@@H](c1ccccc1)N(C)c1nc2cc(C(=O)O)ccc2nc1-c1ccc(F)cc1 [Example 143, (S)-2-(4-Fluorophenyl)-3-(methyl(1-phenylethyl)amino)quinoxaline-6-carboxylic acid]
7 | < 10 | CC(C)N(C)c1nc2cc(C(=O)O)ccc2nc1-c1coc2ccccc12 [Example 1, 2-(Benzofuran-3-yl)-3-(isopropyl(methyl)amino)quinoxaline-6-carboxylic acid]
8 | < 10 | C[C@H]1CCCN1c1nc2cc(C(=O)O)ccc2nc1-c1ccoc1 [Example 78, 2-(Furan-3-yl)-3-[(2S)-2-methylpyrrolidin-1-yl]quinoxaline-6-carboxylic acid]
9 | < 10 | CC(C)N(C)c1nc2cc(C(=O)O)ccc2nc1-c1ccc2[nH]ncc2c1 [Example 8, 2-(1H-Indazol-5-yl)-3-(isopropyl(methyl)amino)quinoxaline-6-carboxylic acid]
10 | < 10 | CC(C)N(C)c1nc2cc(C(=O)O)ccc2nc1-c1cn[nH]c1 [Example 2, 3-(Isopropyl(methyl)amino)-2-(1H-pyrazol-4-yl)quinoxaline-6-carboxylic acid]
11 | < 10 | C[C@H]1CCCN1c1nc2cc(C(=O)O)c(O)cc2nc1-c1ccc(F)cc1 [Example 132, (S)-2-(4-Fluorophenyl)-7-hydroxy-3-(2-methylpyrrolidin-1-yl)quinoxaline-6-carboxylic acid]
12 | < 10 | COC[C@H]1CCCN1c1nc2cc(C(=O)O)ccc2nc1-c1ccc2[nH]ccc2c1 [Example 67, 2-(1H-Indol-5-yl)-3-[(2R)-2-(methoxymethyl)pyrrolidin-1-yl]quinoxaline-6-carboxylic acid]
13 | < 10 | CC(C)N(C)c1nc2cc(C(=O)O)ccc2nc1-c1ccc(C(N)=O)cc1 [Example 119, 2-(4-Carbamoylphenyl)-3-(isopropyl(methyl)amino)quinoxaline-6-carboxylic acid]
14 | < 10 | CC(C)(C)Nc1nc2cc(C(=O)O)ccc2nc1-c1ccc(F)cc1 [Example 110, 3-(tert-Butylamino)-2-(4-fluorophenyl)quinoxaline-6-carboxylic acid]
15 | < 10 | CC(C)N(C)c1nc2cc(C(=O)O)ccc2nc1-c1ccc2c(c1)OCCCO2 [Example 20, 2-(3,4-Dihydro-2H-benzo[b][1,4]dioxepin-7-yl)-3-(isopropyl(methyl)amino)quinoxaline-6-carboxylic acid]
16 | < 10 | C[C@H]1CN(c2ccccn2)CCN1c1nc2cc(C(=O)O)ccc2nc1-c1ccc2[nH]ncc2c1 [Example 92, (S)-2-(1H-indazol-5-yl)-3-(2-methyl-4-(pyridin-2-yl)piperazin-1-yl)quinoxaline-6-carboxylic acid]
17 | < 10 | COc1ccc2oc(-c3nc4ccc(C(=O)O)cc4nc3N(C)C(C)C)cc2c1 [Example 17, 3-(Isopropyl(methyl)amino)-2-(5-methoxybenzofuran-2-yl)quinoxaline-6-carboxylic acid]

Row | IC50 [µM] | Structure (SMILES)
18 | < 10 | CC(C)N(C)c1nc2cc(C(=O)O)ccc2nc1-c1ccnc(F)c1 [Example 11, 2-(2-Fluoropyridin-4-yl)-3-(isopropyl(methyl)amino)quinoxaline-6-carboxylic acid]
19 | < 10 | Cc1ccccc1N(C)c1nc2cc(C(=O)O)ccc2nc1-c1ccc(F)cc1 [Example 109, 2-(4-Fluorophenyl)-3-(methyl(o-tolyl)amino)quinoxaline-6-carboxylic acid]
20 | < 10 | CC(C)CN(C)c1nc2cc(C(=O)O)ccc2nc1-c1ccc(F)cc1 [Example 141, 2-(4-Fluorophenyl)-3-(isobutyl(methyl)amino)quinoxaline-6-carboxylic acid]
21 | < 10 | O=C(O)c1ccc2nc(-c3ccc4[nH]ccc4c3)c(N3CCCCCC3)nc2c1 [Example 37, 3-(Azepan-1-yl)-2-(1H-indol-5-yl)quinoxaline-6-carboxylic acid]
22 | < 10 | Cc1cc2cc(-c3nc4ccc(C(=O)O)cc4nc3N3CCN(c4ccccn4)C[C@@H]3C)ccc2[nH]1 [Example 99, (S)-2-(2-Methyl-1H-indol-5-yl)-3-(2-methyl-4-(pyridin-2-yl)piperazin-1-yl)quinoxaline-6-carboxylic acid]
23 | < 10 | O=C(O)c1ccc2nc(-c3cc4cc(F)ccc4o3)c(N3CCCCCC3)nc2c1 [Example 39, 3-(Azepan-1-yl)-2-(5-fluorobenzofuran-2-yl)quinoxaline-6-carboxylic acid]
24 | < 10 | CN(Cc1ccccc1)c1nc2cc(C(=O)O)ccc2nc1-c1ccc(F)cc1 [Example 133, 3-[Benzyl(methyl)amino]-2-(4-fluorophenyl)quinoxaline-6-carboxylic acid]
25 | < 10 | CC(C)N(C)c1nc2cc(C(=O)O)ccc2nc1-c1ccc2oncc2c1 [Example 50, 2-(1,2-Benzoxazol-5-yl)-3-[methyl(propan-2-yl)amino]quinoxaline-6-carboxylic acid]
26 | < 10 | CC(C)N(C)c1nc2cc(C(=O)O)ccc2nc1-c1cc2ccc(Cl)cc2o1 [Example 31, 2-(6-Chloro-1-benzofuran-2-yl)-3-[methyl(propan-2-yl)amino]quinoxaline-6-carboxylic acid]
27 | < 10 | O=C(O)c1ccc2nc(-c3ccc4[nH]ncc4c3)c(N3CCCCCC3)nc2c1 [Example 36, 3-(Azepan-1-yl)-2-(1H-indazol-5-yl)quinoxaline-6-carboxylic acid]
28 | < 10 | C[C@H]1CCCN1c1nc2cc(C(=O)O)ccc2nc1-c1nc2ccccc2s1 [Example 59, 2-(1,3-Benzothiazol-2-yl)-3-[(2S)-2-methylpyrrolidin-1-yl]quinoxaline-6-carboxylic acid]
29 | < 10 | O=C(O)c1ccc2nc(-c3ccc(F)cc3)c(N3CCC[C@@H]3C(F)(F)F)nc2c1 [Example 101, (R)-2-(4-Fluorophenyl)-3-(2-(trifluoromethyl)pyrrolidin-1-yl)quinoxaline-6-carboxylic acid]
30 | < 10 | O=C(O)c1ccc2nc(-c3ccc4[nH]ncc4c3)c(N3CCCCC3)nc2c1 [Example 35, 2-(1H-Indazol-5-yl)-3-(piperidin-1-yl)quinoxaline-6-carboxylic acid]
31 | < 10 | CN(c1nc2cc(C(=O)O)ccc2nc1-c1cc2ccc(F)cc2o1)C1CC1 [Example 49, 3-(Cyclopropyl(methyl)amino)-2-(6-fluorobenzofuran-2-yl)quinoxaline-6-carboxylic acid]
32 | < 10 | CC(=O)N1CCN(c2nc3cc(C(=O)O)ccc3nc2-c2ccc(F)cc2)CC1 [Example 128, 3-(4-Acetylpiperazin-1-yl)-2-(4-fluorophenyl)quinoxaline-6-carboxylic acid]
33 | < 10 | CC(C)N(C)c1nc2cc(C(=O)O)ccc2nc1-c1ccc2[nH]nnc2c1 [Example 94, 2-(1H-Benzo[d][1,2,3]triazol-5-yl)-3-(isopropyl(methyl)amino)quinoxaline-6-carboxylic acid]
34 | < 10 | O=C(O)c1ccc2nc(-c3ccc(F)cc3)c(N3CCC3)nc2c1 [Example 145, 3-(Azetidin-1-yl)-2-(4-fluorophenyl)quinoxaline-6-carboxylic acid]
